Laboratory results reported in patent US6583118B1, “Chondroprotective agents” (Kureha Chemical Industry Co., Ltd., priority 1993, dated 2003).

Legend:
[1] = tested on: chondrocyte culture (derived from cartilage of rabbit shoulder and knee joints); experiment: Effect of test compounds on proteoglycan depletion in chondrocyte culture (PMA-induced, GAG content); format: cell-based, rabbit (New Zealand white Rabbits); settings: for Relative amount of GAG: control without PMA = 100
Procedure: The cartilages were sterilely extracted from the shoulder and knee joints of rabbits (New Zealand white Rabbits) (body weight of 1 to 1.5 kg). The cartilages were thoroughly washed with PBS (−) (free of Ca^2+, Mg^2+), Hanks' solution and 0.1% EDTA-PBS (−), and then cut into small segments (1 mm×1 mm×1 mm). After PBS (−) containing 0.1% EDTA was added, the segments were allowed to stand in an incubator of 37° C. for 30 minutes. Then, the segments were treated with a trypsin solution (0.25%) at 37° C. for one hour to remove the connective tissue adhered to the cartilage. After the supernatant had been removed, the cartilages were treated for about 2 to 2.5 hours in a Ham F-12 medium containing 10% fetal bovine serum (FBS) and 0.2% collagenase. Then, the collagenase solution was centrifuged (1500 r.p.m.), and the residual chondrocytes were washed twice with a Ham F-12 medium (chondrocyte culture medium) containing 10% FBS. Finally, the resulting suspension was adjusted so that the chondrocytes were suspended in the concentration of 3×10^5 cells/ml in the chondrocyte culture medium. The chondrocytes were seeded in an amount of 1 ml/well on 24-well plates. The chondrocytes became confluent after 4 days. The experiment were performed within two weeks after reaching the confluent stage.
The chondrocyte culture medium which had been used for cultivating the chondrocytes was removed from each well and 800 μl of fresh serum-free S-Clone medium containing 0.1% human serum albumin was added. Further, 100 μl of S-Clone medium containing the compounds to be tested (containing the compound in the concentration of 10 fold the final concentration; DMSO concentration=2.5%) was added. The chondrocytes were cultured in the presence of carbon dioxide (5%) and air (95%) for 2 hours. Then, the proteoglycan depleting agent, PMA (phorbol myristate acetate) (final concentration=0.1 μg/ml) was added into the culture medium of the chondrocytes.
Proteoglycan depletion was determined by the measurement of the glycosaminoglycan (major constituent of proteoglycan, hereinafter referred to as GAG) content following digestion of the chondrocyte matrix with papain.
After 2 days, the supernatant of the chondrocyte culture was removed. Then, 1 ml of 0.03 […] papaine solution was added to the remaining chondrocyte matrix layer and a reaction was performed at 65° C. for 1 hour to liberate the GAG from the matrix layer. The content of the GAG in the treated papaine solution was determined by the 1,9-dimethylmethylene blue method (refer to R. W. Farndale, Biochim. Biophys. Acta., Vol. 883, pp. 173 to 177, 1986). The GAG content in the chondrocyte matrix of the control test wherein the proteoglycan depleting agent was not added was shown as “100”, and the relative amount of the GAG of each experiment except the control test was calculated by following formula:
GAG relative amount (%)=(B/A)×100
wherein A represents the GAG content of the control tests wherein the proteoglycan depleting agent was not added, and B represents the GAG content wherein the proteoglycan depleting agents were added alone or the GAG content wherein the proteoglycan depleting agents and the compounds to be tested were added.
The GAG content is the value of the mean value ± standard error (n=3 to 6). For each of the compounds to be tested, the control test and the proteoglycan depleting test wherein the proteoglycan depleting agent was added were carried out and the results thereof are also shown. The significance was determined by Student's t-test with respect to the proteoglycan depleting test wherein the proteoglycan depleting agent was added.

BALB/c mice = experiment: Observation for a week after oral administration to BALB/c mice; format: in vivo, mouse; settings: 100 mg/kg
Procedure: The same results were obtained where hesperidin, acacetin, diosmetin, apigenin, luteolin, or kaempferol was administered.

Mouse = experiment: Acute toxicity, mouse LD50; format: in vivo; settings: intravenous injection
[2] = Acute toxicity, mouse LD50; format: in vivo; settings: in vivo, oral administration
[3] = PMA 0.1 μg/ml + test compound 100 μM, chondrocyte matrix after 2 days, mean ± standard error (n=3 to 6)
[4] = PMA 0.1 μg/ml + test compound 100 μM
[5] = BALB/c mice (female, seven weeks old), oral

| Structure (SMILES) | GAG content [1, 3] [µg/mL] | Relative amount of GAG [1, 4] | abnormalities observed for a week after administration (BALB/c mice; mouse, in vivo, po) | further results |
| --- | --- | --- | --- | --- |
| O=c1cc(-c2ccc(O)cc2)oc2cc(O)cc(O)c12 [No. 5, Apigenin] | 33.3 ± 0.7 | (60.9) % | no abnormalities were observed |  |
| O=c1cc(-c2ccc(O)c(O)c2)oc2cc(O)cc(O)c12 [No. 8, Luteolin] | 28.6 ± 0.5 | (52.2) % | no abnormalities were observed |  |
| COc1ccc(-c2cc(=O)c3c(O)cc(O)cc3o2)cc1 [No. 11, Acacetin] | 24.2 ± 0.3 | (44.8) % | no abnormalities were observed |  |
| COc1ccc(-c2cc(=O)c3c(O)cc(O[C@@H]4O[C@H](CO[C@@H]5O[C@@H](C)[C@H](O)[C@@H](O)[C@H]5O)[C@@H](O)[C@H](O)[C@H]4O)cc3o2)cc1 [No. 12, Linarin] | 19.8 ± 0.7 | (35.8) % |  |  |
| COc1ccc(-c2cc(=O)c3c(O)cc(O)cc3o2)cc1O [No. 13, Diosmetin] | 27.1 ± 0.7 | (49.0) % | no abnormalities were observed |  |
| O=c1cc(-c2ccccc2)oc2cc(O)c(O)c(O)c12 [No. 15, Baicalein] | 7.67 ± 0.5 | (68.3) % |  |  |
| O=c1c(O)c(-c2ccc(O)c(O)c2)oc2cc(O)ccc12 [No. 16, Fisetin] | 30.1 ± 0.9 | (55.7) % |  | LD50 (Mouse): 180 mg/kg |
| O=c1c(O)c(-c2ccc(O)cc2)oc2cc(O)cc(O)c12 [No. 17, Kaempferol] | 30.5 ± 0.3 | (55.7) % | no abnormalities were observed |  |
| O=c1c(O)c(-c2ccc(O)c(O)c2)oc2cc(O)cc(O)c12 [No. 22, Quercetin] | 31.0 ± 0.6 | (55.3) % |  | LD50 [2]: 160 mg/kg |
| COc1ccc([C@@H]2CC(=O)c3c(O)cc(O)cc3O2)cc1O [No. 41, Hesperetin] | 28.7 ± 0.4 | (48.6) % |  | abnormalities observed for a week after administration (BALB/c mice; [5]): no abnormalities were observed |
| COc1ccc([C@@H]2CC(=O)c3c(O)cc(O[C@@H]4O[C@H](CO[C@@H]5O[C@@H](C)[C@H](O)[C@@H](O)[C@H]5O)[C@@H](O)[C@H](O)[C@H]4O)cc3O2)cc1O [No. 42, Hesperidin] | 24.0 ± 0.6 | (42.8) % |  | abnormalities observed for a week after administration (BALB/c mice; [5]): no abnormalities were observed |
| COc1ccc2c(c1)c(CC(=O)O)c(C)n2C(=O)c1ccc(Cl)cc1 [indometacin, Indometacin, reference compound] |  |  |  | Relative amount of GAG ([1]; PMA 0.1 μg/ml + indometacin 10 μM): (47.1) %; GAG content ([1]; PMA 0.1 μg/ml + indometacin 10 μM, mean ± standard error): 13.2 ± 0.6 µg/mL; Relative amount of GAG ([1]; PMA 0.1 μg/ml + indometacin 33 μM): (41.8) %; GAG content ([1]; PMA 0.1 μg/ml + indometacin 33 μM, mean ± standard error): 11.7 ± 0.8 µg/mL |
